Laboratory results from patent publication US20240108732A1, “Formulated and/or Co-Formulated Lipid Nanocarriers Compositions Containing Toll-Like Receptor ("TLR") Agonist Prodrugs Useful In The Treatment of Cancer and Methods Thereof” (Nammi Therapeutics, Inc., priority 2022, published 2024).

Tests used:
[1] = target: T1, human TLR8 (Homo sapiens, UniProt Q9NR97); test: Example 15: HEK-Blue hTLR8 cells / QUANTI-Blue SEAP assay; type: cell-based; conditions: from RAW-Blue and HEK-Blue hTLR8 results
T1 construct: host or cells: HEK-Blue hTLR8 cells
T1 sequence (Q9NR97 27-1041): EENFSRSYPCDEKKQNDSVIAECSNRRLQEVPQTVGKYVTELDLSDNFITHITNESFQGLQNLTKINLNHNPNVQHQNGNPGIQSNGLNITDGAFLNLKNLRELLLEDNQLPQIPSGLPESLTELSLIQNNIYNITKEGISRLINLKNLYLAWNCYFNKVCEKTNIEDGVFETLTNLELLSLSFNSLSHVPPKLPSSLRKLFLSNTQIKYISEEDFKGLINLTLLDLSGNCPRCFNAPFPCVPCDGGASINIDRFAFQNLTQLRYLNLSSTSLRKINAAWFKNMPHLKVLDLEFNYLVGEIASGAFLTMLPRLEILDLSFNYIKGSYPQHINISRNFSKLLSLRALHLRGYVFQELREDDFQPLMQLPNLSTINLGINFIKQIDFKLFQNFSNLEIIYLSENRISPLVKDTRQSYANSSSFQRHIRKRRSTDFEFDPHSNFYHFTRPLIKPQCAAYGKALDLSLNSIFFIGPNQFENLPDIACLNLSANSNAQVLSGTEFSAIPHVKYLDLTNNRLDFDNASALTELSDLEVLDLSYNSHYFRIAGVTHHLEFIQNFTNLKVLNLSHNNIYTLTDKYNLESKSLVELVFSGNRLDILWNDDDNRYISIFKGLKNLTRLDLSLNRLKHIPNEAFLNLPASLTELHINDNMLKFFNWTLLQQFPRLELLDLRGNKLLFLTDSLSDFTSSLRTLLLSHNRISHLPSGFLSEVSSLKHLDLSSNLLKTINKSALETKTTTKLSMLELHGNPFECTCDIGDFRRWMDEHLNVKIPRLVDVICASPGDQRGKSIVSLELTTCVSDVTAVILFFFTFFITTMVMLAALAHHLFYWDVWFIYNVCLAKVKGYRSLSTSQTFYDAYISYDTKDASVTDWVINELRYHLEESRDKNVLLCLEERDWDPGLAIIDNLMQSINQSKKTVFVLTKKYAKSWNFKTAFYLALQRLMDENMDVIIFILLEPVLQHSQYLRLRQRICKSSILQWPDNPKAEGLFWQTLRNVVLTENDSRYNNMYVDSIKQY
Text: In another experiment, in vitro biological activity of SLNP-TR12 specificity to TLR7 was confirmed using the following experiment. […] It is noted that despite Raw-Blue cells that express a variety of TLRs including TLR7 and TLR8, the HEK-Blue™ hTLR8 cells dominantly express the human TLR8 gene and an NF-κB/AP-1-inducible SEAP (secreted embryonic alkaline phosphatase) reporter gene. Thus, SEAP levels produced upon TLR8 stimulation can be readily determined by performing the assay in HEK-Blue™ Detection.
Concurrently, HEK-Blue TLR8 were incubated with SLNP-TR5 or SLNP-TR12 at different concentrations. After 24 h incubation with the compounds, TLR stimulation was assessed by measuring the levels of SEAP optimal density (OD) using QUANTI-Blue™ assay. ODs were normalized to the control (untreated) group (See, FIG. 23(B)).

[2] = target: T2, TLR7 (Mus musculus, UniProt P58681); test: Example 13: RAW-Blue cells / QUANTI-Blue SEAP reporter assay; type: cell-based; conditions: 24 h incubation
T2 construct: Raw-Blue cells that express a variety of TLRs including TLR7 and TLR8; host or cells: RAW-Blue cells
T2 sequence (P58681 27-1050): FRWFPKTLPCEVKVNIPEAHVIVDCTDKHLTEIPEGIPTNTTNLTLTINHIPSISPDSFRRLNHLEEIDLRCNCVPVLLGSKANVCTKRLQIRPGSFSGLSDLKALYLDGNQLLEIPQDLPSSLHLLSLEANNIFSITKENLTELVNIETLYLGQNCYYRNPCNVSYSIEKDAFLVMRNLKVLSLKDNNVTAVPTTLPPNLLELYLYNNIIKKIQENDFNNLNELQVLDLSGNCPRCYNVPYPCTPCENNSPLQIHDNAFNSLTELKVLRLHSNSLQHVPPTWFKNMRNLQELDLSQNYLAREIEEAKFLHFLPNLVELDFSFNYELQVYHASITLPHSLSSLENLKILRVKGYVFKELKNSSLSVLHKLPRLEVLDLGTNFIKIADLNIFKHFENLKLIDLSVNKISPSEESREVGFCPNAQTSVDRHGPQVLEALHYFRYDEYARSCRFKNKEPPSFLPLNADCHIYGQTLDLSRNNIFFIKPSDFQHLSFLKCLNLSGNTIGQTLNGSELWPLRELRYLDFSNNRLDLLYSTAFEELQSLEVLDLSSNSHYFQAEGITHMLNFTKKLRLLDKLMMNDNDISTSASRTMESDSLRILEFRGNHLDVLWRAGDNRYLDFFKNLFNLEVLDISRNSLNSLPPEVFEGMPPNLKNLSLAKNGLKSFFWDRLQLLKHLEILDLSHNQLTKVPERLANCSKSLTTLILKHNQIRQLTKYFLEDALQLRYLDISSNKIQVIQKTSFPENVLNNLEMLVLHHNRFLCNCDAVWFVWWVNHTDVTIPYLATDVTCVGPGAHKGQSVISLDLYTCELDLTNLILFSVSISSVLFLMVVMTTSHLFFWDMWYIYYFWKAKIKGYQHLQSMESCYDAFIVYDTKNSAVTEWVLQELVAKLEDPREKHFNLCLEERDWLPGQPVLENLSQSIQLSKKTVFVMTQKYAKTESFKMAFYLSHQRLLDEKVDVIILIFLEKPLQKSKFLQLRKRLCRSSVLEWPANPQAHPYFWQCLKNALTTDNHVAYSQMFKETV
Protocol: By way of background, RAW-Blue™ Cells and QUANTI-Blue™ (InvivoGen, San Diego, CA) assay were utilized. Raw Blue™ express […] Toll-like receptors (“TLRs”) and an NF-κB/AP-1-inducible SEAP (secreted embryonic alkaline phosphatase) reporter gene. Stimulation of these cells with TR12 leads to NF-κB activation through TLR7 which can be measured by detection of SEAP levels. Briefly, RAW-Blue™ Cells were incubated with TR12-SA (TR12-Stearic Acid) and SLNP-TR12 (TR12 Stearic Acid in Solid Lipid Nanoparticle from) at different concentration. After 24 h incubation with the compounds, TLR stimulation was assessed by measuring the levels of SEAP optimal density (OD) using QUANTI-Blue™ assay. ODs were normalized to the control (untreated) group. […] (See, FIG. 21).

Row | Compound | specificity TLR7 versus TLR8 [1] | TLR stimulation (SEAP OD normalized to untreated control) [2]
1 | CCCCCCCCCCCCCCCCCC(=O)NCCCCOn1c(CCCC)nc2c(N)nc3ccccc3c21 [TR5, Telratolimod] | stimulates both TLR7 and TLR8 | –
2 | CCCCCCCCCCCCCCCCCC(=O)OCOC(=O)N1CCN(c2ccc(Cn3c(=O)[nH]c4c(N)nc(NCCCC)nc43)cn2)CC1 [TR12 prodrug] | – | stimulation of TLR-7
